Assay results taken from EP0494622A1, “Bridged cyclic ketal derivatives” (priority 1991, dated 1992).
Values after ≈ are worked out from the molar mass of the structure shown. Counter-ions that a name gives are not always drawn.

Tests used:
[1] = tested on: a variety of clinically relevant pathogens; assay: In vitro antifungal activity: minimum inhibitory concentration (MIC) on agar plates containing the test compound; format: cell-based; conditions: Candida albicans, read-out: MICs
Procedure: The in vitro evaluation of the anti-fungal activity of compounds of the invention can be performed by determining the minimum inhibitory concentration (MIC) which is the concentration of the test compound in a suitable medium at which growth of a particular microorganism fails to occur. […] A. […] [¹⁴C] Squalene was separated from unreacted substrate on thin layer chromatography plates and determined by liquid scintillation counting. Inhibition of squalene synthase was quantified by incubating rat liver homogenate with various concentrations of the test compound in the presence of[2-¹⁴C] farnesylpyrophosphate. The concentration of compound giving 50% inhibition of [¹⁴C] squalene production in a 30 minute assay was taken as the IC₅₀ value. […] In practice, a series of agar plates, each having the test compound incorporated at a particular concentration, was inoculated with a standard culture of a clinically relevant pathogen, for example Candida albicans, and each plate was then incubated at 37 °C for 24 to 48 hours depending on the pathogen. The plates were then examined for the presence or absence of growth of the fungus and the appropriate MIC was noted.

[2] = target: T1, squalene synthase (Rattus norvegicus, UniProt Q02769); assay: Inhibition of squalene synthase in rat liver homogenate with [2-14C]farnesylpyrophosphate as substrate; [14C]squalene separated by TLC and counted by liquid scintillation; format: biochemical; conditions: concentration giving 50% inhibition of [14C]squalene production in a 30 minute assay, read-out: IC₅₀
T1 construct: from tissue; host or cells: rat liver homogenate
T1 sequence (Q02769 1-416): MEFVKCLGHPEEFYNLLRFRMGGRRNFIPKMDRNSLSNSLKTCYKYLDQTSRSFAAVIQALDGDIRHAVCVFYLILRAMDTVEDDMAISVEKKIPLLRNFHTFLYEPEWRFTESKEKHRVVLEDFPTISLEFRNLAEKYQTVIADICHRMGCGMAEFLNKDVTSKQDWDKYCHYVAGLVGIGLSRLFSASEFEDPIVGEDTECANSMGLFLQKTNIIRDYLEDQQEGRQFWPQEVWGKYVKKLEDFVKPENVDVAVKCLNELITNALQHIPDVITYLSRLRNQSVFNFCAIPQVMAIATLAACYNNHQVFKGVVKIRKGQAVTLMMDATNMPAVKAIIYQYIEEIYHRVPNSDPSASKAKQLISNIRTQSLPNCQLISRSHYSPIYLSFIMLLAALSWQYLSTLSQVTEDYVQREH
Procedure: Acta, Volume 877, 50-60 (1986) and modified to include measurement of cholesterol by high performance liquid chromatography (h.p.l.c.).
[¹⁴C] Squalene was separated from unreacted substrate on thin layer chromatography plates and determined by liquid scintillation counting. Inhibition of squalene synthase was quantified by incubating rat liver homogenate with various concentrations of the test compound in the presence of[2-¹⁴C] farnesylpyrophosphate. The concentration of compound giving 50% inhibition of [¹⁴C] squalene production in a 30 minute assay was taken as the IC₅₀ value. […] In practice, a series of agar plates, each having the test compound incorporated at a particular concentration, was inoculated with a standard culture of a clinically relevant pathogen, for example Candida albicans, and each plate was then incubated at 37 °C for 24 to 48 hours depending on the pathogen. The plates were then examined for the presence or absence of growth of the fungus and the appropriate MIC was noted. In this test the title compounds in Examples 19, Example 3 Compound 1 and Example 7 Compound 1 had MICs in the range of 1 to 31 µg/ml against a variety of clinically relevant pathogens.

## C=C(CC[C@]12OC[C@@](O)(C(=O)O)[C@](C(=O)O)(O1)[C@H](OC(=O)/C=C/[C@@H](C)C[C@@H](C)CC)[C@H]2O)[C@@H](OC(C)=O)[C@H](C)Cc1ccccc1 (relative stereo) [Example 3 Compound 1, [1S-[1α(4R*,5S*),4β,5α,6α(2E,4R*,6R*),7β]] 1-(4-Acetyloxy-5-methyl-3-methylene-6-phenylhexyl)-4,6,7-trihydroxy-2,8-dioxabicyclo [3.2.1]octane-4,5-dicarboxylic acid, 6-(4,6-dimethyl-2-octenoate)]
[1]
  MIC: 1 to 31 µg/mL (≈ 1.55 to 47.9 µM)
[2]
  IC50: < 100 nM

## C=C(CC[C@]12OC[C@@](O)(C(=O)OC)[C@](C(=O)O)(O1)[C@H](OC(=O)/C=C/[C@@H](C)C[C@@H](C)CC)[C@H]2O)[C@@H](OC(C)=O)[C@H](C)Cc1ccccc1 (relative stereo) [Example 3 Compound 2, [1S-[1α(4R*,5S*),4β,5α,6α(2E,4R*,6R*),7β]] 1-(4-acetyloxy-5-methyl-3-methylene-6-phenylhexyl)-4,6,7-trihydroxy-2,8-dioxabicyclo[3.2.1]octane-4,5-dicarboxylic acid, 6-(4,6-dimethyl-2-octenoate), 4-methyl ester]
[2]
  IC50: < 100 nM

## C=C(CC[C@]12O[C@H](CO)[C@@](O)(C(=O)O)[C@](C(=O)O)(O1)[C@H](OC(=O)/C=C/[C@@H](C)C[C@@H](C)CC)[C@H]2O)[C@@H](OC(C)=O)[C@H](C)Cc1ccccc1 (relative stereo) [Example 7 Compound 1, [1S-[1α(4R*,5S*),3α,4β,5α,6α(2E,4R*,6R*),7β]] 1-(4-Acetyloxy-5-methyl-3-methylene-6-phenylhexyl)-3-hydroxymethyl-4,6,7-trihydroxy-2,8-dioxabicyclo[3.2.1]octane-4,5-dicarboxylic acid, 6-(4,6-dimethyl-2-octenoate)]
[1]
  MIC: 1 to 31 µg/mL (≈ 1.48 to 45.8 µM)
[2]
  IC50: < 100 nM

## C=C(CC[C@]12O[C@H](CO)[C@@](O)(C(=O)OC)[C@](C(=O)O)(O1)[C@H](OC(=O)/C=C/[C@@H](C)C[C@@H](C)CC)[C@H]2O)[C@@H](OC(C)=O)[C@H](C)Cc1ccccc1 (relative stereo) [Example 7 Compound 2, [1S-[1α(4R*,5S*),3α,4β,5α,6α(2E,4R*,6R*),7β]] 1-(4-acetyloxy-5-methyl-3-methylene-6-phenylhexyl)-3-hydroxymethyl-4,6,7-trihydroxy-2,8-dioxabicyclo[3.2.1]octane-4,5-dicarboxylic acid, 6-(4,6-dimethyl-2-octenoate),4-methyl ester]
[2]
  IC50: < 100 nM

## C=C(CC[C@]12O[C@H](CO)[C@@](O)(C(=O)O)[C@](C(=O)O)(O1)[C@H](OC(=O)CC[C@@H](C)C[C@@H](C)CC)[C@H]2O)[C@@H](OC(C)=O)[C@H](C)Cc1ccccc1 (relative stereo) [Example 10, [1S-[1α(4R*,5S*),3α,4β,5α,6α(4S*,6R*),7β]] 1-(4-Acetyloxy-5-methyl-3-methylene-6-phenylhexyl)-3-hydroxymethyl-4,6,7-trihydroxy-2,8-dioxabicyclo[3.2.1]octane-4,5-dicarboxylic acid, 6-(4,6-dimethyloctanoate), dipotassium salt]
[2]
  IC50: < 100 nM

## C=C(CC[C@]12O[C@H](CO)[C@@](O)(C(=O)O)[C@](C(=O)O)(O1)[C@H](OC(=O)/C=C/[C@@H](C)C[C@@H](C)CC)[C@H]2O)[C@@H](O)[C@H](C)Cc1ccccc1 (relative stereo) [Example 11, [1S-[1α(4R*,5S*),3α,4β,5α,6α(2E,4R*,6R*),7β]] 1-(4-Hydroxy-5-methyl-3-methylene-6-phenylhexyl)-3-hydroxymethyl-4,6,7-trihydroxy-2,8-dioxabicyclo[3.2.1]octane-4,5-dicarboxylic acid, 6-(4,6-dimethyl-2-octenoate)]
[2]
  IC50: < 100 nM

## C=C(CC[C@]12O[C@H](CO)[C@@](O)(C(=O)O)[C@](C(=O)O)(O1)[C@H](OC(=O)CC[C@@H](C)C[C@@H](C)CC)[C@H]2O)[C@@H](O)[C@H](C)Cc1ccccc1 (relative stereo) [Example 25, [1S-[1α(4R*,5S*),3α,4β,5α,6α(4S*,6R*),7β]] 1-(4-Hydroxy-5-methyl-3-methylene-6-phenylhexyl)-3-hydroxymethyl-4,6,7-trihydroxy-2,8-dioxabicyclo[3.2.1]octane-4,5-dicarboxylic acid, 6-(4,6-dimethyloctanoate)]
[2]
  IC50: < 100 nM
